Experimental data taken from PMC6257796, “Effects of Eupatilin and Jaceosidin on Cytochrome P450 Enzyme Activities in Human Liver Microsomes” (Molecules, 2010).

Tests used:
Type in all cases: in vitro ADME
[1] = biological target: T1, CYP2A6 (Homo sapiens, UniProt P11509); assay: Cocktail probe assay in pooled human liver microsomes: coumarin 7-hydroxylation (IC50); conditions: for IC50, coumarin 7-hydroxylation (CYP2A6): pooled human liver microsomes, 2.5 μM coumarin
T1 construct: pooled human liver microsomes (0.25 mg/mL); tissue BD Gentest Co. H161; host or cells: pooled human liver microsomes
T1 sequence (P11509 1-494): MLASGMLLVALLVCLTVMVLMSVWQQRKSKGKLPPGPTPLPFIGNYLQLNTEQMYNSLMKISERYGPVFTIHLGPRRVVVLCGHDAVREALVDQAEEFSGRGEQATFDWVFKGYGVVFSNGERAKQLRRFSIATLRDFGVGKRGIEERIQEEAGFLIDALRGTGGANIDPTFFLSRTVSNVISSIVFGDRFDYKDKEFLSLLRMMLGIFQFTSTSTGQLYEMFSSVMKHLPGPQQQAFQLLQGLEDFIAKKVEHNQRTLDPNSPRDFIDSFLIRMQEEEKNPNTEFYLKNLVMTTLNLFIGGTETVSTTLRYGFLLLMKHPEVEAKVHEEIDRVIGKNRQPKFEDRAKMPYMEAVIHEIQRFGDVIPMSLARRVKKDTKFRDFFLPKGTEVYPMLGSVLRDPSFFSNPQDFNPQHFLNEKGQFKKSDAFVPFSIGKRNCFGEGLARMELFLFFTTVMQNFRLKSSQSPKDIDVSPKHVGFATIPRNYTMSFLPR
Experimental: (§1) The inhibitory potencies (IC50 values) of eupatilin and jaceosidin were determined with CYP assays in the presence and absence of eupatilin and jaceosidin (final concentrations of 0.1−100 μM with acetonitrile concentration of less than 0.5% v/v) using pooled human liver microsomes. Phenacetin O-deethylase, coumarin 7-hydroxylase, amodiaquine N-deethylase, diclofenac hydroxylase, [S]-mephenytoin 4'-hydroxylase, bufuralol 1'-hydroxylase, and midazolam 1'-hydroxylase activities were determined as probe activities for CYP1A2, CYP2A6, CYP2C8, CYP2C9, CYP2C19, CYP2D6, and CYP3A, respectively, using cocktail incubation and tandem mass spectrometry. The incubation mixtures were prepared in a total volume of 200 μL as follows: pooled human liver microsomes (0.25 mg/mL), 1.3 mM NADPH, 3.3 mM MgCl2, 50 mM potassium phosphate buffer (pH 7.4), and a cocktail of probe substrates and various concentrations of eupatilin or jaceosidin (0.1−100 μM). […] After a 3 min preincubation at 37 °C, the reactions were initiated by adding NADPH and incubated for 20 min at 37 °C with shaking in a water bath. After incubation, the reaction was stopped by placing the tubes on ice and adding 100 μL of ice-cold acetonitrile containing internal standards (0.5 μg/mL [^13C,^15N]-acetaminophen for acetaminophen and N-desethylamodiaquine, 0.5 μg/mL [^2H5]-7-hydroxycoumarin for 7-hydroxycoumarin, 2.0 μg/mL [^13C6]-4-hydoxydiclofenac for 4-hydoxydiclofenac, 0.5 μg/mL [^2H3]-4'-hydoxymephenytoin for 4-hydoxymephenytoin and 1'-hydroxymidazolam, and 0.5 μg/mL [^2H7]-1'-hydroxybufuralol for 1'-hydroxybufuralol). The incubation mixtures were then centrifuged at 10,000× g for 5 min. All incubations were performedin triplicate.
(§2) To evaluate the effect of preincubation on inhibitory potency, eupatilin and jaceosidin (0.1−100 μM) were preincubated for 30 min with NADPH, buffer, and microsomes before the addition of the CYP probe substrates. The reaction was started by addition of the cocktail of probe substrates.
(§3) All seven metabolites produced from the cocktail of CYP isoform-specific substrates were simultaneously determined by LC/MS/MS. The system consisted of a tandem quadrupole mass spectrometer (TSQ Quantum Access, ThermoFisher Scientific, CA, USA) coupled with a Nanospace SI-2 LC system. The separation was performed on an Atlantis dC18 column (5 μm, 2.1 mm i.d. × 100 mm, Waters, Waltham, MA, USA) using the gradient elution of a mixture of 5% methanol in 0.1% formic acid (mobile phase A) and 95% methanol in 0.1% formic acid (mobile phase B) at a flow rate of 0.25 mL/min: 10% mobile phase B for 1 min, 10% to 95% mobile phase B for 1 min, 95% mobile phase B for 5 min. The column and autosampler temperatures were 50 °C and 4 °C, respectively. After 1.5 min, the LC eluant was diverted from waste to the mass spectrometer that was fitted with an electrospray ionization (ESI) source and operated in the positive ion mode. The ESI source settings for the ionization of the metabolites were as follows: electrospray voltage, 5.0 kV; vaporizer temperature, 420 °C; capillary temperature 360 °C; sheath gas pressure, 35 psi; auxiliary gas pressure, 10 psi. Quantification was performed by selected reaction monitoring (SRM) of the [M+H]^+ ion and the related product ion for each metabolite. The analytical data were processed using Xcalibur® software (ThermoFisher Scientific).
(§4) The IC50 values (concentration of inhibitor causing 50% inhibition of the original enzyme activity) were calculated using WinNonlin software, a non-linear regression analysis program (Pharsight, Mountain View, CA, USA). The apparent kinetic parameters for inhibitory potential (Ki values) were estimated from the fitted curves using Enzyme Kinetics Ver. 1.3 program (Systat Software Inc., San Jose, CA, USA).

[2] = system: CYP3A; assay: Cocktail probe assay in pooled human liver microsomes: midazolam 1'-hydroxylation (IC50); conditions: for IC50, midazolam 1'-hydroxylation (CYP3A): pooled human liver microsomes, 2.5 μM midazolam
Experimental: as §1, §2, §3, §4

[3] = biological target: T2, CYP2C19 (Homo sapiens, UniProt P33261); assay: Cocktail probe assay in pooled human liver microsomes: [S]-mephenytoin 4'-hydroxylation (IC50); conditions: 50 μM [S]-mephenytoin
T2 construct: pooled human liver microsomes (0.25 mg/mL); tissue BD Gentest Co. H161; host or cells: pooled human liver microsomes
T2 sequence (P33261 whole entry): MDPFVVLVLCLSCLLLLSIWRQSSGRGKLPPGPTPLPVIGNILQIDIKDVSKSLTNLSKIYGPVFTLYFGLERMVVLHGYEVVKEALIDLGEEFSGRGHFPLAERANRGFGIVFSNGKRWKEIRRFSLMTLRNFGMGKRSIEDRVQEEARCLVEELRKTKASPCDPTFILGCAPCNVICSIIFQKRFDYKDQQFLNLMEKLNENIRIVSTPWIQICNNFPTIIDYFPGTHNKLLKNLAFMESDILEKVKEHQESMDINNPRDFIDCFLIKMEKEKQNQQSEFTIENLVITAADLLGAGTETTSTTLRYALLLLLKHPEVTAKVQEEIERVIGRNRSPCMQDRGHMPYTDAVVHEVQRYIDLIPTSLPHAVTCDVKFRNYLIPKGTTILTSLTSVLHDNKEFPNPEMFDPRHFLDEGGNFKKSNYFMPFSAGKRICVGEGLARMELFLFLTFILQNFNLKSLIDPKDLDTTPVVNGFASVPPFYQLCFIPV
Experimental: as §1, §2
(§5) All seven metabolites produced from the cocktail of CYP isoform-specific substrates were simultaneously determined by LC/MS/MS. The system consisted of a tandem quadrupole mass spectrometer (TSQ Quantum Access, ThermoFisher Scientific, CA, USA) coupled with a Nanospace SI-2 LC system. The separation was performed on an Atlantis dC18 column (5 μm, 2.1 mm i.d. × 100 mm, Waters, Waltham, MA, USA) using the gradient elution of a mixture of 5% methanol in 0.1% formic acid (mobile phase A) and 95% methanol in 0.1% formic acid (mobile phase B) at a flow rate of 0.25 mL/min: 10% mobile phase B for 1 min, 10% to 95% mobile phase B for 1 min, 95% mobile phase B for 5 min. […] Quantification was performed by selected reaction monitoring (SRM) of the [M+H]^+ ion and the related product ion for each metabolite. […]

[4] = biological target: T3, CYP1A2 (Homo sapiens, UniProt P05177); assay: Kinetic analysis (Ki, inhibition type) in human liver microsomes: phenacetin O-deethylation; conditions: pooled human liver microsomes
T3 construct: pooled human liver microsomes (0.25 mg/mL); tissue BD Gentest Co. H161; host or cells: pooled human liver microsomes
T3 sequence (P05177 1-516): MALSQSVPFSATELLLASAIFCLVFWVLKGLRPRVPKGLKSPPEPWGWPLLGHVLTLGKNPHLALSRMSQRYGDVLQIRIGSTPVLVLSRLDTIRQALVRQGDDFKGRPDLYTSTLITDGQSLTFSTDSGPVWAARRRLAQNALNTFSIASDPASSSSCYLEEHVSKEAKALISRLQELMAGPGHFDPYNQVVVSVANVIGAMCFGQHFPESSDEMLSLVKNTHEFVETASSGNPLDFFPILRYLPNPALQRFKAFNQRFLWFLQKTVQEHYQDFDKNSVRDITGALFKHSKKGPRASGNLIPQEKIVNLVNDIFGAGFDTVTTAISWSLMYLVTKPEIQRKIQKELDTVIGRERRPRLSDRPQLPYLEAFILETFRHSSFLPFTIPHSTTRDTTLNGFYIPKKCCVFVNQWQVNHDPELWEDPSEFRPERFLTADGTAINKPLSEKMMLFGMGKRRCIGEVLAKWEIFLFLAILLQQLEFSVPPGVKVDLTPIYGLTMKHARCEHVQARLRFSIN
Experimental: (§6) The Ki values and inhibition types (competitive, noncompetitive, uncompetitive, or mixed) were determined for eupatilin and jaceosidin using Lineweaver plots, Dixon plots, and secondary reciprocal plots.
(§7) The reactions were initiated by addition of NADPH at 37 °C and stopped after 15 min by placing the incubation tubes on ice and adding 100 μL of ice-cold methanol containing an internal standard. The incubation mixtures were centrifuged at 10,000' g for 5 min, and aliquots (5 μL) of the supernatants were analyzed by liquid chromatography/tandem mass spectrometry (LC/MS/MS).
as §3, §4

[5] = biological target: T4, CYP2D6 (Homo sapiens, UniProt P10635); assay: Cocktail probe assay in pooled human liver microsomes: bufuralol 1'-hydroxylation (IC50); conditions: 5.0 μM bufuralol
T4 construct: pooled human liver microsomes (0.25 mg/mL); tissue BD Gentest Co. H161; host or cells: pooled human liver microsomes
T4 sequence (P10635 whole entry): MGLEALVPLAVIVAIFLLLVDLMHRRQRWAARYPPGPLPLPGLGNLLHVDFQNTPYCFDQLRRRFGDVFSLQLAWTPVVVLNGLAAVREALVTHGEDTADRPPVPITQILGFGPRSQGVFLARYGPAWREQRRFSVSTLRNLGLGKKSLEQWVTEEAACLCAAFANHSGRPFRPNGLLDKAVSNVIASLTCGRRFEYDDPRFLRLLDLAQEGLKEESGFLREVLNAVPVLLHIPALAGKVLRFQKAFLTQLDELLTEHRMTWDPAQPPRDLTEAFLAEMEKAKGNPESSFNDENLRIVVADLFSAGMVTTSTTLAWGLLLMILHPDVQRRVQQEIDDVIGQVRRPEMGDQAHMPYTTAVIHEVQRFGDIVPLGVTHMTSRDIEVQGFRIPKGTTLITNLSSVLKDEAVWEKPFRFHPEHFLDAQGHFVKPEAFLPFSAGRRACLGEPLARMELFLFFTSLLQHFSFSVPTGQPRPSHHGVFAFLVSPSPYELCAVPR
Experimental: as §1, §2, §5

[6] = biological target: T5, CYP2C8 (Homo sapiens, UniProt P10632); assay: Kinetic analysis (Ki, inhibition type) in human liver microsomes: amodiaquine N-deethylation; conditions: pooled human liver microsomes, 0.5-5 μM amodiaquine
T5 construct: pooled human liver microsomes (0.25 mg/mL); tissue BD Gentest Co. H161; host or cells: pooled human liver microsomes
T5 sequence (P10632 1-490): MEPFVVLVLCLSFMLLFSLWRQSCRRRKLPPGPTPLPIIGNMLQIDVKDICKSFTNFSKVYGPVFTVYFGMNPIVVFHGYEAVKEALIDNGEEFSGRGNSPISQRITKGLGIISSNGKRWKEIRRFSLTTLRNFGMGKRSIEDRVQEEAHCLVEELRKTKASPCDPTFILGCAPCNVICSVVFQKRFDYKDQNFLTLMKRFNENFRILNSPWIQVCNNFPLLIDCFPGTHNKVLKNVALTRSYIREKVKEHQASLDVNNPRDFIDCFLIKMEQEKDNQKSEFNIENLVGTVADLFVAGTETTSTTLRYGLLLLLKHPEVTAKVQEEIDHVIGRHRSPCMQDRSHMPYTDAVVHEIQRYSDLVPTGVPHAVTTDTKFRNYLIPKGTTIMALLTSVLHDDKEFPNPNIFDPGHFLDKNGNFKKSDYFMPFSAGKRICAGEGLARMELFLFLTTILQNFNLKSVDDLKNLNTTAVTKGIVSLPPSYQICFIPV
Experimental: as §6, §7, §3, §4

[7] = with 30 min preincubation in presence of NADPH

- Inhibition of CYP2A6-catalyzed coumarin 7-hydroxylation at the highest concentration tested ([1]; 100 μM, human liver microsomes): negligible inhibition
- IC50, coumarin 7-hydroxylation (CYP2A6) ([1]; no preincubation): No inhibition
- IC50, coumarin 7-hydroxylation (CYP2A6) [1, 7]: No inhibition
- Inhibition of CYP3A4-catalyzed midazolam 1'-hydroxylation at the highest concentration tested ([2]; 100 μM, human liver microsomes): negligible inhibition
- IC50, midazolam 1'-hydroxylation (CYP3A) ([2]; no preincubation): No inhibition
- IC50, midazolam 1'-hydroxylation (CYP3A) [2, 7]: No inhibition
- IC50 ([3]; no preincubation): 64.9 ± 4.8 µM
- IC50 [3, 7]: 69.8 ± 3.8 µM
- Ki ([4]; 10-100 μM phenacetin): 3.8 ± 0.23 µM
- Inhibition type, phenacetin O-deethylation (CYP1A2) ([4]; Lineweaver, Dixon and secondary reciprocal plots): competitive
- IC50 ([5]; no preincubation): 79.1 ± 1.8 µM
- IC50 [5, 7]: 82.3 ± 2.4 µM
- Ki [6]: 109 ± 7.3 µM
Structure (SMILES): COc1cc(-c2cc(=O)c3c(O)c(OC)c(O)cc3o2)ccc1O [jaceosidin, 5,7-dihydroxy-2-(4-hydroxy-3-methoxyphenyl)-6-methoxychromen-4-one]
